Reference: ChEMBL document CHEMBL1136464, “Array synthesis of novel lipodepsipeptide” (Bioorg Med Chem Lett, 2003)
Converted amounts (≈) assume the structure as drawn.

What was measured:
Format in all cases: functional
Enterococcus faecium [1] = assay: Antibacterial activity against Enterococcus faecium ATCC 49452 at 10 % serum; details: ATCC 49452, Serum
Enterococcus faecalis [2] = assay: Antibacterial activity against Enterococcus faecalis ATCC 6569 at 0 % serum
Staphylococcus aureus [3] = assay: Antibacterial activity against methicillin susceptible staphylococcus aureus ATCC 29213 at 0 % serum
Staphylococcus aureus [4] = assay: Antibacterial activity against methicillin-resistant staphylococcus aureus ATCC 43300 at 10 % serum
Enterococcus faecium [5] = assay: Antibacterial activity against Enterococcus faecium ATCC 49452 at 0 % serum
Enterococcus faecalis [6] = assay: Antibacterial activity against Enterococcus faecalis ATCC 6569 at 10 % serum; details: ATCC 6569, Serum
Staphylococcus aureus [7] = assay: Antibacterial activity against methicillin-resistant staphylococcus aureus ATCC 43300 at 0 % serum
Staphylococcus aureus [8] = assay: Antibacterial activity against methicillin susceptible staphylococcus aureus ATCC 29213 at 10 % serum

Compound	MIC (Enterococcus faecium [1]) [µg/mL]	MIC (Enterococcus faecalis [2]) [µg/mL]	MIC (Staphylococcus aureus [3]) [µg/mL]	MIC (Staphylococcus aureus [4]) [µg/mL]	MIC (Enterococcus faecium [5]) [µg/mL]	MIC (Enterococcus faecalis [6]) [µg/mL]	MIC (Staphylococcus aureus [7]) [µg/mL]	MIC (Staphylococcus aureus [8]) [µg/mL]
CCCCCCCCCC(=O)N[C@@H](Cc1c[nH]c2ccccc12)C(=O)N[C@H](CC(N)=O)C(=O)N[C@@H](CCO)C(=O)N[C@@H]1C(=O)NCC(=O)N[C@@H](CCCNCc2ccc(S(=O)(=O)N3CCN(c4ncccn4)CC3)cc2)C(=O)N[C@@H](CC(=O)O)C(=O)N[C@H](C)C(=O)N[C@@H](CC(=O)O)C(=O)NCC(=O)N[C@H](CO)C(=O)N[C@@H]([C@H](C)CC(=O)O)C(=O)N[C@@H](CC(=O)c2ccccc2N)C(=O)O[C@@H]1C	12.5 (≈ 6.5 µM)	3.13 (≈ 1.63 µM)	0.78 (≈ 0.406 µM)	1.56 (≈ 0.811 µM)	3.13 (≈ 1.63 µM)	6.25 (≈ 3.25 µM)	0.39 (≈ 0.203 µM)	1.56 (≈ 0.811 µM)
CCCCCCCCCC(=O)N[C@@H](Cc1c[nH]c2ccccc12)C(=O)N[C@H](CC(N)=O)C(=O)N[C@@H](CCO)C(=O)N[C@@H]1C(=O)NCC(=O)N[C@@H](CCCNCc2cc3ccccc3o2)C(=O)N[C@@H](CC(=O)O)C(=O)N[C@H](C)C(=O)N[C@@H](CC(=O)O)C(=O)NCC(=O)N[C@H](CO)C(=O)N[C@@H]([C@H](C)CC(=O)O)C(=O)N[C@@H](CC(=O)c2ccccc2N)C(=O)O[C@@H]1C	12.5 (≈ 7.2 µM)	3.13 (≈ 1.8 µM)	0.78 (≈ 0.449 µM)	0.78 (≈ 0.449 µM)	3.13 (≈ 1.8 µM)	6.25 (≈ 3.6 µM)	0.78 (≈ 0.449 µM)	1.56 (≈ 0.898 µM)
CCCCCCCCCC(=O)N[C@@H](Cc1c[nH]c2ccccc12)C(=O)N[C@H](CC(N)=O)C(=O)N[C@@H](CCO)C(=O)N[C@@H]1C(=O)NCC(=O)N[C@@H](CCCNCc2ccc3ccccc3n2)C(=O)N[C@@H](CC(=O)O)C(=O)N[C@H](C)C(=O)N[C@@H](CC(=O)O)C(=O)NCC(=O)N[C@H](CO)C(=O)N[C@@H]([C@H](C)CC(=O)O)C(=O)N[C@@H](CC(=O)c2ccccc2N)C(=O)O[C@@H]1C	25 (≈ 14.3 µM)	6.25 (≈ 3.58 µM)	0.78 (≈ 0.446 µM)	0.78 (≈ 0.446 µM)	6.25 (≈ 3.58 µM)	12.5 (≈ 7.15 µM)	0.78 (≈ 0.446 µM)	1.56 (≈ 0.893 µM)
CCCCCCCCCC(=O)N[C@@H](Cc1c[nH]c2ccccc12)C(=O)N[C@H](CC(N)=O)C(=O)N[C@@H](CCO)C(=O)N[C@@H]1C(=O)NCC(=O)N[C@@H](CCCNCc2ccc(C(=O)N3CCN(Cc4ccccc4)CC3)cc2)C(=O)N[C@@H](CC(=O)O)C(=O)N[C@H](C)C(=O)N[C@@H](CC(=O)O)C(=O)NCC(=O)N[C@H](CO)C(=O)N[C@@H]([C@H](C)CC(=O)O)C(=O)N[C@@H](CC(=O)c2ccccc2N)C(=O)O[C@@H]1C	6.25 (≈ 3.29 µM)	6.25 (≈ 3.29 µM)	0.78 (≈ 0.411 µM)	0.39 (≈ 0.205 µM)	3.13 (≈ 1.65 µM)	6.25 (≈ 3.29 µM)	0.39 (≈ 0.205 µM)	0.78 (≈ 0.411 µM)
CCCCCCCCCC(=O)N[C@@H](Cc1c[nH]c2ccccc12)C(=O)N[C@H](CC(N)=O)C(=O)N[C@@H](CCO)C(=O)N[C@@H]1C(=O)NCC(=O)N[C@@H](CCCNCc2ccc(S(=O)(=O)NCc3ccc(F)cc3)cc2)C(=O)N[C@@H](CC(=O)O)C(=O)N[C@H](C)C(=O)N[C@@H](CC(=O)O)C(=O)NCC(=O)N[C@H](CO)C(=O)N[C@@H]([C@H](C)CC(=O)O)C(=O)N[C@@H](CC(=O)c2ccccc2N)C(=O)O[C@@H]1C	6.25 (≈ 3.32 µM)	1.56 (≈ 0.828 µM)	0.39 (≈ 0.207 µM)	0.78 (≈ 0.414 µM)	1.56 (≈ 0.828 µM)	3.13 (≈ 1.66 µM)	0.39 (≈ 0.207 µM)	1.56 (≈ 0.828 µM)
CCCCCCCCCC(=O)N[C@@H](Cc1c[nH]c2ccccc12)C(=O)N[C@H](CC(N)=O)C(=O)N[C@@H](CCO)C(=O)N[C@@H]1C(=O)NCC(=O)N[C@@H](CCCNCc2ccccc2N)C(=O)N[C@@H](CC(=O)O)C(=O)N[C@H](C)C(=O)N[C@@H](CC(=O)O)C(=O)NCC(=O)N[C@H](CO)C(=O)N[C@@H]([C@H](C)CC(=O)O)C(=O)N[C@@H](CC(=O)c2ccccc2N)C(=O)O[C@@H]1C	6.25 (≈ 3.65 µM)	6.25 (≈ 3.65 µM)	0.78 (≈ 0.456 µM)	1.56 (≈ 0.911 µM)	6.25 (≈ 3.65 µM)	25 (≈ 14.6 µM)	0.78 (≈ 0.456 µM)	3.13 (≈ 1.83 µM)
